According to patent US8192962B2, “Processes for detecting toxic substances” (Daikin Industries, Ltd., priority 2001, dated 2012):

System: Energy system protein genes
Assay: DNA chip mRNA expression in yeast, energy system protein genes (Table 4)
Type: cell-based, Saccharomyces cerevisiae S288C
Outline: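 S. cerevisiae S288C grown at 25° C in YPD were exposed in log phase for two hours to one toxic chemical at a growth-inhibiting, non-lethal concentration; untreated cells served as control. Poly(A) mRNA was reverse-transcribed with Cy3/Cy5-dUTP and hybridized to a whole-genome yeast DNA chip at 65° C for over 12 hours; values are fluorescence ratios versus untreated.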

CN(C)C(=S)SSC(=S)N(C)C [(10), Tetramethylthiuram disulfide]
The level of expressed mRNA in the presence of chemical substance/The level of expressed mRNA in the absence of chemical substance (yeast gene YAL060W): 2.5
The level of expressed mRNA in the presence of chemical substance/The level of expressed mRNA in the absence of chemical substance (yeast gene YBL058W, cells incubated two hours with the chemical substance): 2.1
The level of expressed mRNA in the presence of chemical substance/The level of expressed mRNA in the absence of chemical substance (yeast gene YBL099W, cells incubated two hours with the chemical substance): 0.7
The level of expressed mRNA in the presence of chemical substance/The level of expressed mRNA in the absence of chemical substance (yeast gene YBR001C, cells incubated two hours with the chemical substance): 2.1
The level of expressed mRNA in the presence of chemical substance/The level of expressed mRNA in the absence of chemical substance (yeast gene YBR185C, cells incubated two hours with the chemical substance): 1.6
The level of expressed mRNA in the presence of chemical substance/The level of expressed mRNA in the absence of chemical substance (yeast gene YBR221C, cells incubated two hours with the chemical substance): 1.3
The level of expressed mRNA in the presence of chemical substance/The level of expressed mRNA in the absence of chemical substance (yeast gene YCL040W): 3.0
The level of expressed mRNA in the presence of chemical substance/The level of expressed mRNA in the absence of chemical substance (yeast gene YCR012W): 1.5
The level of expressed mRNA in the presence of chemical substance/The level of expressed mRNA in the absence of chemical substance (yeast gene YCR046C, cells incubated two hours with the chemical substance): 1.4
The level of expressed mRNA in the presence of chemical substance/The level of expressed mRNA in the absence of chemical substance (yeast gene YCR105W, cells incubated two hours with the chemical substance): 3.9
The level of expressed mRNA in the presence of chemical substance/The level of expressed mRNA in the absence of chemical substance (yeast gene YDL021W): 7.4
The level of expressed mRNA in the presence of chemical substance/The level of expressed mRNA in the absence of chemical substance (yeast gene YDL067C, cells incubated two hours with the chemical substance): 0.9
The level of expressed mRNA in the presence of chemical substance/The level of expressed mRNA in the absence of chemical substance (yeast gene YDL078C, cells incubated two hours with the chemical substance): 1.0
The level of expressed mRNA in the presence of chemical substance/The level of expressed mRNA in the absence of chemical substance (yeast gene YDL107W, cells incubated two hours with the chemical substance): 1.8
The level of expressed mRNA in the presence of chemical substance/The level of expressed mRNA in the absence of chemical substance (yeast gene YDL174C): 1.7
The level of expressed mRNA in the presence of chemical substance/The level of expressed mRNA in the absence of chemical substance (yeast gene YDL181W, cells incubated two hours with the chemical substance): 0.8
The level of expressed mRNA in the presence of chemical substance/The level of expressed mRNA in the absence of chemical substance (yeast gene YDR001C): 3.0
The level of expressed mRNA in the presence of chemical substance/The level of expressed mRNA in the absence of chemical substance (yeast gene YDR050C, cells incubated two hours with the chemical substance): 1.3
The level of expressed mRNA in the presence of chemical substance/The level of expressed mRNA in the absence of chemical substance (yeast gene YDR079W, cells incubated two hours with the chemical substance): 0.8
The level of expressed mRNA in the presence of chemical substance/The level of expressed mRNA in the absence of chemical substance (yeast gene YDR178W, cells incubated two hours with the chemical substance): 0.8
The level of expressed mRNA in the presence of chemical substance/The level of expressed mRNA in the absence of chemical substance (yeast gene YDR231C): 1.4
The level of expressed mRNA in the presence of chemical substance/The level of expressed mRNA in the absence of chemical substance (yeast gene YDR298C, cells incubated two hours with the chemical substance): 1.6
The level of expressed mRNA in the presence of chemical substance/The level of expressed mRNA in the absence of chemical substance (yeast gene YDR377W, cells incubated two hours with the chemical substance): 0.9
The level of expressed mRNA in the presence of chemical substance/The level of expressed mRNA in the absence of chemical substance (yeast gene YDR529C, cells incubated two hours with the chemical substance): 0.6
The level of expressed mRNA in the presence of chemical substance/The level of expressed mRNA in the absence of chemical substance (yeast gene YEL024W, cells incubated two hours with the chemical substance): 0.6
The level of expressed mRNA in the presence of chemical substance/The level of expressed mRNA in the absence of chemical substance (yeast gene YEL039C, cells incubated two hours with the chemical substance): 1.2
The level of expressed mRNA in the presence of chemical substance/The level of expressed mRNA in the absence of chemical substance (yeast gene YER178W): 1.3
The level of expressed mRNA in the presence of chemical substance/The level of expressed mRNA in the absence of chemical substance (yeast gene YFL057C): 46.1
The level of expressed mRNA in the presence of chemical substance/The level of expressed mRNA in the absence of chemical substance (yeast gene YFR053C): 1.1
The level of expressed mRNA in the presence of chemical substance/The level of expressed mRNA in the absence of chemical substance (yeast gene YGL018C, cells incubated two hours with the chemical substance): 1.4
The level of expressed mRNA in the presence of chemical substance/The level of expressed mRNA in the absence of chemical substance (yeast gene YGL062W): 2.5
The level of expressed mRNA in the presence of chemical substance/The level of expressed mRNA in the absence of chemical substance (yeast gene YGL187C, cells incubated two hours with the chemical substance): 0.6
The level of expressed mRNA in the presence of chemical substance/The level of expressed mRNA in the absence of chemical substance (yeast gene YGL191W, cells incubated two hours with the chemical substance): 1.3
The level of expressed mRNA in the presence of chemical substance/The level of expressed mRNA in the absence of chemical substance (yeast gene YGL205W, cells incubated two hours with the chemical substance): 0.6
The level of expressed mRNA in the presence of chemical substance/The level of expressed mRNA in the absence of chemical substance (yeast gene YGL256W, cells incubated two hours with the chemical substance): 1.2
The level of expressed mRNA in the presence of chemical substance/The level of expressed mRNA in the absence of chemical substance (yeast gene YGR008C): 2.4
The level of expressed mRNA in the presence of chemical substance/The level of expressed mRNA in the absence of chemical substance (yeast gene YGR043C): 8.4
The level of expressed mRNA in the presence of chemical substance/The level of expressed mRNA in the absence of chemical substance (yeast gene YGR062C, cells incubated two hours with the chemical substance, 25° C., YPD medium): 1.4
The level of expressed mRNA in the presence of chemical substance/The level of expressed mRNA in the absence of chemical substance (yeast gene YGR087C, cells incubated two hours with the chemical substance): 0.9
The level of expressed mRNA in the presence of chemical substance/The level of expressed mRNA in the absence of chemical substance (yeast gene YGR174C, cells incubated two hours with the chemical substance): 0.7
The level of expressed mRNA in the presence of chemical substance/The level of expressed mRNA in the absence of chemical substance (yeast gene YGR192C): 1.3
The level of expressed mRNA in the presence of chemical substance/The level of expressed mRNA in the absence of chemical substance (yeast gene YGR207C): 2.6
The level of expressed mRNA in the presence of chemical substance/The level of expressed mRNA in the absence of chemical substance (yeast gene YGR244C): 1.1
The level of expressed mRNA in the presence of chemical substance/The level of expressed mRNA in the absence of chemical substance (yeast gene YGR254W): 1.2
The level of expressed mRNA in the presence of chemical substance/The level of expressed mRNA in the absence of chemical substance (yeast gene YGR256W): 2.5
The level of expressed mRNA in the presence of chemical substance/The level of expressed mRNA in the absence of chemical substance (yeast gene YHL008C): 1.7
The level of expressed mRNA in the presence of chemical substance/The level of expressed mRNA in the absence of chemical substance (yeast gene YHR179W): 5.8
The level of expressed mRNA in the presence of chemical substance/The level of expressed mRNA in the absence of chemical substance (yeast gene YIL160C): 3.8
The level of expressed mRNA in the presence of chemical substance/The level of expressed mRNA in the absence of chemical substance (yeast gene YIL172C): 7.1
The level of expressed mRNA in the presence of chemical substance/The level of expressed mRNA in the absence of chemical substance (yeast gene YIR031C, cells incubated two hours with the chemical substance): 1.0
The level of expressed mRNA in the presence of chemical substance/The level of expressed mRNA in the absence of chemical substance (yeast gene YJL052W): 2.0
The level of expressed mRNA in the presence of chemical substance/The level of expressed mRNA in the absence of chemical substance (yeast gene YJL121C, cells incubated two hours with the chemical substance): 0.4
The level of expressed mRNA in the presence of chemical substance/The level of expressed mRNA in the absence of chemical substance (yeast gene YJL166W, cells incubated two hours with the chemical substance): 1.2
